Measured values from patent publication US20140073634A1 (Institute For Applied Cancer Science/The University of …, priority 2012, published 2014).

The compounds below were run on 293T-HRE-GFP-luc cells (assay: Cell-based reporter assay for IC50 determinations (HRE-luciferase, hypoxia)). Settings: 6 h, 6 hrs hypoxia (1% O2), luminescence.
Experimental: Cell-Based Reporter Assay for IC50 Determinations
293T-HRE-GFP-luc cells were routinely maintained in DMEM media (high glucose version with GlutaMAX and HEPES, Gibco, catalog #10564) supplemented with 10% fetal bovine serum and 2 μg/mL puromycin (Invitrogen, catalog #A11138-03) using a humidified incubator (normoxia conditions consisting of 37° C., 5% CO2 and ambient O2).
In preparation for the reporter assay, cells were harvested and resuspended in DMEM media (high glucose version with GlutaMAX and HEPES) supplemented with 10% fetal bovine serum. Cells were inoculated into 384-well white Culturplates (Perkin Elmer catalog #6007680) at a density of 12,000 cells/well in a volume of […]. The microplates were incubated overnight (approximately 17-19 hours) at 37° C. with 5% CO2 and ambient O2. Stock solutions of the test compounds were prepared in DMSO (Sigma, Catalog #D2650) and serially diluted 1:3 using DMSO. Compounds were additionally diluted (1:50) with culturemedium and 10 µL were added per well to the Culturplate. Following a 30 min. incubation under normoxia conditions, the plates were incubated in hypoxia for 6 hrs. (37° C., 5% CO2 and 1% O2). Steadylite Plus (Perkin Elmer, catalog #6016751) was then added ([…]), the plates were mixed on an orbital shaker at room temperature in the dark for 15 min., and luminescence was measured using an Envision plate reader (Perkin Elmer). IC50 values were calculated using a four-parameter logistic curve fit. Results are shown below in Table 2; ND indicates no data.

Compound | IC50 [nM]
CC(C)(CO)c1cccc(Cn2cc(-c3nc(-c4ccc(OC(F)(F)F)cc4)no3)ccc2=O)c1 [Example 38, 1-{[3-(1-Hydroxy-2-methylpropan-2-yl)phenyl]methyl}-5-{3-[4-(trifluoromethoxy)phenyl]-1,2,4-oxadiazol-5-yl}-1,2-dihydropyridin-2-one] | 100 to 1000
CC(C)(O)c1cccc(Cn2cc(-c3nc(-c4ccc(OC(F)(F)F)cc4)no3)ccc2=O)c1 [Example 39, 1-{[3-(2-Hydroxypropan-2-yl)phenyl]methyl}-5-{3-[4-(trifluoromethoxy)phenyl]-1,2,4-oxadiazol-5-yl}-1,2-dihydropyridin-2-one] | < 100
CN(C)C(=O)/C=C/c1cccc(Cn2cc(-c3nc(-c4ccc(OC(F)(F)F)cc4)no3)ccc2=O)c1 [Example 40, (2E)-N,N-dimethyl-3-{3-[(2-oxo-5-{3-[4-(trifluoromethoxy)phenyl]-1,2,4-oxadiazol-5-yl}-1,2-dihydropyridin-1-yl)methyl]phenyl}prop-2-enamide] | < 100
CS(=O)(=O)C1CCN(c2cccc(Cn3cc(-c4nc(-c5ccc(OC(F)(F)F)cc5)no4)ccc3=O)c2)CC1 [Example 41, 1-{[3-(4-Methanesulfonylpiperidin-1-yl)phenyl]methyl}-5-{3-[4-(trifluoromethoxy)phenyl]-1,2,4-oxadiazol-5-yl}-1,2-dihydropyridin-2-one] | < 100
O=c1ccc(-c2nc(-c3ccc(OC(F)(F)F)cc3)no2)cn1Cc1cccc(CCO)c1 [Example 42, 1-{[3-(2-Hydroxyethyl)phenyl]methyl}-5-{3-[4-(trifluoromethoxy)phenyl]-1,2,4-oxadiazol-5-yl}-1,2-dihydropyridin-2-one] | < 100
O=c1ccc(-c2nc(-c3ccc(OC(F)(F)F)cc3)no2)cn1Cc1cccc(CO)c1 [Example 43, 1-{[3-(Hydroxymethyl)phenyl]methyl}-5-{3-[4-(trifluoromethoxy)phenyl]-1,2,4-oxadiazol-5-yl}-1,2-dihydropyridin-2-one] | < 100
CC(=O)SCc1cccc(Cn2cc(-c3nc(-c4ccc(OC(F)(F)F)cc4)no3)ccc2=O)c1 [Example 44, 1-({3-[(Acetylsulfanyl)methyl]phenyl}methyl)-5-{3-[4-(trifluoromethoxy)phenyl]-1,2,4-oxadiazol-5-yl}-1,2-dihydropyridin-2-one] | < 100
O=c1ccc(-c2nc(-c3ccc(OC(F)(F)F)cc3)no2)cn1Cc1cccc(CS)c1 [Example 45, 1-{[3-(Sulfanylmethyl)phenyl]methyl}-5-{3-[4-(trifluoromethoxy)phenyl]-1,2,4-oxadiazol-5-yl}-1,2-dihydropyridin-2-one] | < 100
COC(=O)CCc1cccc(Cn2cc(-c3nc(-c4ccc(OC(F)(F)F)cc4)no3)ccc2=O)c1 [Example 46, Methyl 3-{3-[(2-oxo-5-{3-[4-(trifluoromethoxy)phenyl]-1,2,4-oxadiazol-5-yl}-1,2-dihydropyridin-1-yl)methyl]phenyl}propanoate] | < 100
O=C(O)CCc1cccc(Cn2cc(-c3nc(-c4ccc(OC(F)(F)F)cc4)no3)ccc2=O)c1 [Example 47, 3-{3-[(2-oxo-5-{3-[4-(trifluoromethoxy)phenyl]-1,2,4-oxadiazol-5-yl}-1,2-dihydropyridin-1-yl)methyl]phenyl}propanoic acid] | 100 to 1000
O=c1ccc(-c2nc(-c3ccc(OC(F)(F)F)cc3)no2)cn1Cc1cccc(CCCO)c1 [Example 48, 1-{[3-(3-Hydroxypropyl)phenyl]methyl}-5-{3-[4-(trifluoromethoxy)phenyl]-1,2,4-oxadiazol-5-yl}-1,2-dihydropyridin-2-one] | < 100
CN(C)C(=O)CCc1cccc(Cn2cc(-c3nc(-c4ccc(OC(F)(F)F)cc4)no3)ccc2=O)c1 [Example 49, N,N-Dimethyl-3-{3-[(2-oxo-5-{3-[4-(trifluoromethoxy)phenyl]-1,2,4-oxadiazol-5-yl}-1,2-dihydropyridin-1-yl)methyl]phenyl}propanamide] | < 100
CC(C)(O)c1cc(Cn2cc(-c3nc(-c4ccc(OC(F)(F)F)cc4)no3)ccc2=O)ccn1 [Example 50, 1-{[2-(2-Hydroxypropan-2-yl)pyridin-4-yl]methyl}-5-{3-[4-(trifluoromethoxy)phenyl]-1,2,4-oxadiazol-5-yl}-1,2-dihydropyridin-2-one] | 100 to 1000
COCCOc1cc(Cn2cc(-c3nc(-c4ccc(OC(F)(F)F)cc4)no3)ccc2=O)ccn1 [Example 51, 1-{[2-(2-Methoxyethoxy)pyridin-4-yl]methyl}-5-{3-[4-(trifluoromethoxy)phenyl]-1,2,4-oxadiazol-5-yl}-1,2-dihydropyridin-2-one] | 100 to 1000
C=Cc1cccc(Cn2cc(-c3nc(-c4ccc(OC(F)(F)F)cc4)no3)ccc2=O)c1 [Example 52, 5-(3-(4-(Trifluoromethoxy)phenyl)-1,2,4-oxadiazol-5-yl)-1-(3-vinylbenzyl)pyridin-2(1H)-one] | < 100
O=c1ccc(-c2nc(-c3ccc(OC(F)(F)F)cc3)no2)cn1Cc1cccc(C(O)CO)c1 (stereo not drawn) [Example 53, 1-(3-(1,2-Dihydroxyethyl)benzyl)-5-(3-(4-(trifluoromethoxy)phenyl)-1,2,4-oxadiazol-5-yl)pyridin-2(1H)-one] | < 100
C=CCOc1cccc(Cn2cc(-c3nc(-c4ccc(OC(F)(F)F)cc4)no3)ccc2=O)c1 [Example 54, 1-(3-(Allyloxy)benzyl)-5-(3-(4-(trifluoromethoxy)phenyl)-1,2,4-oxadiazol-5-yl)pyridin-2(1H)-one] | < 100
O=c1ccc(-c2nc(-c3ccc(OC(F)(F)F)cc3)no2)cn1Cc1cccc(OCC(O)CO)c1 (stereo not drawn) [Example 55, 1-(3-(2,3-Dihydroxypropoxy)benzyl)-5-(3-(4-(trifluoromethoxy)phenyl)-1,2,4-oxadiazol-5-yl)pyridin-2(1H)-one] | < 100
CC(C)=Cc1cccc(Cn2cc(-c3nc(-c4ccc(OC(F)(F)F)cc4)no3)ccc2=O)c1 [Example 56, 1-(3-(2-methylprop-1-enyl)benzyl)-5-(3-(4-(trifluoromethoxy)phenyl)-1,2,4-oxadiazol-5-yl)pyridin-2(1H)-one] | < 100
CC(C)(O)C(O)c1cccc(Cn2cc(-c3nc(-c4ccc(OC(F)(F)F)cc4)no3)ccc2=O)c1 (stereo not drawn) [Example 57, 1-(3-(1,2-Dihydroxy-2-methylpropyl)benzyl)-5-(3-(4-(trifluoromethoxy)phenyl)-1,2,4-oxadiazol-5-yl)pyridin-2(1H)-one] | < 100
O=c1ccc(-c2nc(-c3ccc(OC(F)(F)F)cc3)no2)cn1Cc1cccc(N2CCC(O)CC2)c1 [Example 58, 1-(3-(4-Hydroxypiperidin-1-yl)benzyl)-5-(3-(4-(trifluoromethoxy)phenyl)-1,2,4-oxadiazol-5-yl)pyridin-2(1H)-one] | < 100
O=c1ccc(-c2nc(-c3ccc(OC(F)(F)F)cc3)no2)cn1Cc1cccc(N2CCNCC2)c1 [Example 59, 1-(3-(piperazin-1-yl)benzyl)-5-(3-(4-(trifluoromethoxy)phenyl)-1,2,4-oxadiazol-5-yl)pyridin-2(1H)-one] | < 100
O=C(CO)N1CCN(c2cccc(Cn3cc(-c4nc(-c5ccc(OC(F)(F)F)cc5)no4)ccc3=O)c2)CC1 [Example 60] | < 100
CS(=O)(=O)N1CCN(c2cccc(Cn3cc(-c4nc(-c5ccc(OC(F)(F)F)cc5)no4)ccc3=O)c2)CC1 [Example 61] | < 100
NCC(O)COc1cccc(Cn2cc(-c3nc(-c4ccc(OC(F)(F)F)cc4)no3)ccc2=O)c1 (stereo not drawn) [Example 62, 1-(3-(3-Amino-2-hydroxypropoxy)benzyl)-5-(3-(4-(trifluoromethoxy)phenyl)-1,2,4-oxadiazol-5-yl)pyridin-2(1H)-one] | < 100
CN1CCN(c2cccc(Cn3cc(-c4nc(-c5ccc(C(F)(F)F)cc5)no4)ccc3=O)c2)CC1 [Example 63, 1-(3-(4-Methylpiperazin-1-yl)benzyl)-5-(3-(4-(trifluoromethyl)phenyl)-1,2,4-oxadiazol-5-yl)pyridin-2(1H)-one] | < 100
COCCOc1cccc(Cn2cc(-c3noc(-c4ccc(N5CCCS5(=O)=O)cc4)n3)ccc2=O)c1 [Example 66, 5-(5-(4-(1,1-Dioxidoisothiazolidin-2-yl)phenyl)-1,2,4-oxadiazol-3-yl)-1-(3-(2-methoxyethoxy)benzyl)pyridin-2(1H)-one] | 100 to 1000
COCCOc1cccc(Cn2cc(-c3noc(-c4ccc(C5CC5)cc4)n3)ccc2=O)c1 [Example 67, 5-(5-(4-Cyclopropylphenyl)-1,2,4-oxadiazol-3-yl)-1-(3-(2-methoxyethoxy)benzyl)pyridin-2(1H)-one] | < 100
COCCOc1cccc(Cn2cc(-c3noc(-c4ccc(C(C)(C)C#N)cc4)n3)ccc2=O)c1 [Example 68, 2-(4-(3-(1-(3-(2-Methoxyethoxy)benzyl)-6-oxo-1,6-dihydropyridin-3-yl)-1,2,4-oxadiazol-5-yl)phenyl)-2-methylpropanenitrile] | 100 to 1000

Same assay, conditions: 6 hrs hypoxia (1% O2), luminescence

Compound | IC50 [nM]
COCCOc1cccc(Cn2cc(-c3noc(-c4ccc(C(F)(F)F)cc4)n3)ccc2=O)c1 [Example 65, 1-(3-(2-Methoxyethoxy)benzyl)-5-(5-(4-(trifluoromethyl)phenyl)-1,2,4-oxadiazol-3-yl)pyridin-2(1H)-one] | 100 to 1000
